These results are taken from publication PMC11853379, “Glioblastoma Cell Migration, Invasion and Vasculogenic Mimicry Downmodulated by Novel uPAcyclin Derivatives” (Cells, 2025).

For assay [1], the system named is U251-MG cells. Format: cell-based, human. On the procedure: The migration and invasion assays were performed with Boyden chambers, according to De Vincenzo et al., using 11 × 10^4 U87-MG and U251-MG glioblastoma cells/sample pre-treated for 40 min at 37 °C with the indicated effectors and then allowed to migrate for 3 h or to invade for 5 h at 37 °C toward 5% FBS in DMEM/0.1% BSA. The migrated or invaded cells were reported as a percentage of basal random migration or invasion and analyzed as reported in the Statistical Analyses section. The migration and invasion experiments were conducted in triplicate.
Figure 4 Binding and biological effect of selected Ala peptides on U251-MG migration and invasion. (A) A binding assay was performed using U251-MG cells, as described in the legend of Figure 1. (B) The directional migration toward 10% FBS of U251-MG cells was performed in Boyden chambers, in the presence of the indicated peptides, as described in the legend of Figure 1. (C) An invasion assay was performed toward 5% FBS of U251-MG cells in Boyden chambers, in the presence of the indicated peptides. For all migration and invasion assays, the p-values are ≤0.001, apart from [Ala^1]uPAcyclin with a p ≤ 0.05.

Assay [2] concerns the target T1, integrin αV receptors on the GBM cell surface (U87-MG cells) (Homo sapiens, UniProt P06756).
T1 construct: endogenous in cells; host or cells: U87-MG human glioblastoma cells (living, acid-treated, 4 °C)
Kind of assay: Receptor binding assay: displacement of FITC-uPAcyclin from U87-MG living cells. As to the method: The U87-MG and U251-MG cell lines were harvested and acid-treated, as described. Briefly, 2 × 10^6 cells/sample were pre-incubated for 30 min at 4 °C with uPAcyclin and Ala peptides and subsequently exposed to 50 nM FITC-uPAcyclin for 2 h at 4 °C, as described. The experiments were performed three times, with duplicate samples, and analyzed as reported in the statistical analysis.
This assay confirmed that FITC-uPAcyclin binds specifically to both GBM cell lines and to the HEK-293/αV, whereas little interaction is detected with HEK-293 cells (Supporting Information, Table S7). […] To investigate the ability of novel Ala-scan peptides to compete with uPAcyclin for binding to integrin αV receptors on the GBM cell surface, the specific interaction of FITC-conjugated uPAcyclin with U87-MG living cells was tested via a receptor binding assay. U87-MG GBM cells were pre-incubated with increasing concentrations of unlabeled Ala peptides and then exposed to FITC-uPAcyclin (Figure 1A). […] When considering the relative Kdapp of uPAcyclin variants, it can be inferred that the replacement either of each of the three prolines (Pro^2, Pro^5, Pro^6) or Lys^1 increases the binding affinity of the resulting peptide compared to uPAcyclin. In contrast, the Ala mutation of other residues is detrimental to the peptide binding affinity.
Figure 1 Binding of Ala peptides to U87-MG cells and effect of uPAcyclin and Ala peptides on U87-MG cellular migration. (A) A total of 2 × 10^6 U87-MG cells were pre-incubated for 30 min at 4 °C with increasing concentrations of unlabeled uPAcyclin and Ala peptides and then exposed to 50 nM of FITC-uPAcyclin for 2 h at 4 °C. Cell surface-associated fluorescence, as percentage of the sample with […], is shown. Experiments were carried out in duplicate, and the data shown here are representative of three independent experiments. (B) 11 × 10^4 U87-MG cells/sample were pre-treated for 40 min at 37 °C with increasing concentrations of uPAcyclin or the indicated Ala peptides and then assayed in Boyden chambers for 5% FBS-dependent migration for 3 h at 37 °C. At the end of incubation, the filters were processed as described in the Methods section. For clarity here and in the following Figures, Ala-x indicates the peptide with substituted x-position. For both assays, the p-values are in the range of 0.005 ≤ p ≤ 0.001, apart from [Ala1]uPAcyclin in the migration assay with p ≤ 0.05.

Like-named read-outs stand apart in the source and are kept apart here. Positions of bridges follow the written chain, without caps; N, C: chain ends. Residues, ends and D or L forms follow the SMILES beside them. Bounds are passed on as bounds.

T1 sequence (P06756 31-889 limits assumed): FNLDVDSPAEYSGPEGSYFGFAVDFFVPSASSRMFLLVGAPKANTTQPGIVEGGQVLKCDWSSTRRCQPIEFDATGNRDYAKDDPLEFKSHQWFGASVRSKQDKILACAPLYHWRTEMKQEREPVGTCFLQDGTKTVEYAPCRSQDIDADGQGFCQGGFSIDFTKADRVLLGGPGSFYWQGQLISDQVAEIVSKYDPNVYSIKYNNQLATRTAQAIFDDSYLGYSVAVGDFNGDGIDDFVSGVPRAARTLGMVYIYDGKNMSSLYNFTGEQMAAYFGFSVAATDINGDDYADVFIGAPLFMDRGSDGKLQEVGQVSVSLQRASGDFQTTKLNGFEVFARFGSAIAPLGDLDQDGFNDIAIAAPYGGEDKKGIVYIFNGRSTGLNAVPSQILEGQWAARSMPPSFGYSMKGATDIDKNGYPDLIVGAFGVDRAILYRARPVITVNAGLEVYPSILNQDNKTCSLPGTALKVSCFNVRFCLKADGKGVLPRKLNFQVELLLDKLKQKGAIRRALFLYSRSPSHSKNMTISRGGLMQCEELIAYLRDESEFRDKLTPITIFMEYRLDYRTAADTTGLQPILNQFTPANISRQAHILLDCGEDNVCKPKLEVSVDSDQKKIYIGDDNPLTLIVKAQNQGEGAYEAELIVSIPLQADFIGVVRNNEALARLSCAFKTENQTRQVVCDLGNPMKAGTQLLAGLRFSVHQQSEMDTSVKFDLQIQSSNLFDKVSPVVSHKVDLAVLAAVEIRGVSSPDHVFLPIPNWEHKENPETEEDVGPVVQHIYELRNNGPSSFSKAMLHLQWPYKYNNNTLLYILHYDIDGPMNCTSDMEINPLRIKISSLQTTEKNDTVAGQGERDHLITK
T1 sequence (P06756 891-1048 limits assumed): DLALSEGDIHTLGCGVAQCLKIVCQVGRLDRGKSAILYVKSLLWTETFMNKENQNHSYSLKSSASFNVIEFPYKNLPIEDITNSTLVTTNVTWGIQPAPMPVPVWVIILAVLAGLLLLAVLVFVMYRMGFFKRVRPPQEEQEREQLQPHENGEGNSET

`CC(=O)N[C@@H](CCCCN)C(=O)N[C@@H](C)C(=O)N[C@H]1CCC(=O)NCCCC[C@@H](C(N)=O)NC(=O)[C@H](CC(C)C)NC(=O)[C@H](CCC(=O)O)NC(=O)[C@H](CCC(=O)O)NC(=O)[C@@H]2CCCN2C(=O)[C@H](C)NC(=O)[C@H](CO)NC1=O` [[Ala^2,Ala^5]uPAcyclin] (Ac-KAESAPEELK-NH2; lactam 3-10): the IC50 in assay [1] (3 h) and in assay [1] (5 h) was below 0.001 nM in each case.
As for `CC(=O)N[C@@H](CCCCN)C(=O)N1CCC[C@H]1C(=O)N[C@H]1CCC(=O)NCCCC[C@@H](C(N)=O)NC(=O)[C@H](CC(C)C)NC(=O)[C@H](C)NC(=O)[C@H](CCC(=O)O)NC(=O)[C@@H]2CCCN2C(=O)[C@@H]2CCCN2C(=O)[C@H](CO)NC1=O` [[Ala^8]uPAcyclin] (Ac-KPESPPEALK-NH2; lactam 3-10), the “binding affinity compared to uPAcyclin (in words)” value in assay [2] (displacement of FITC-uPAcyclin, U87-MG cells) is listed as “reduced affinity”. In assay [1] (U251-MG), the “inhibition of invasion (in words)” value was “most active among the Ala variants” and the “inhibition of migration (in words)” value is “most active among the Ala variants”.
In the case of `CC(=O)N[C@@H](CCCCN)C(=O)N1CCC[C@H]1C(=O)N[C@H]1CCC(=O)NCCCC[C@@H](C(N)=O)NC(=O)[C@H](CC(C)C)NC(=O)[C@H](CCC(=O)O)NC(=O)[C@H](CCC(=O)O)NC(=O)[C@@H]2CCCN2C(=O)[C@@H]2CCCN2C(=O)[C@H](CO)NC1=O` [uPAcyclin] (Ac-KPESPPEELK-NH2; lactam 3-10), in assay [2] (competition with 50 nM FITC-uPAcyclin, 2 × 10^6 U87-MG cells, pre-incubation 30 min 4 °C, then 2 h 4 °C, three experiments in duplicate, read-out: Kdapp), the Kd was around 0.1 nM.
